# Measured values as given in patent publication US8586747B2, “3,3-dimethyl tetrahydroquinoline derivatives” (Hoffmann-La Roche Inc., priority 2010, dated 2013).
# Tested on: AMP-activated protein kinase (AMPK)
# Experiment: ADP Quest assay for AMPK activators
# Assay type: biochemical
# Parameters: key: fold AMPK activation with vs without activator at 30 µM
# Conditions: fold of AMPK activation to phosphorylate SAMS peptide without and with an activator at the concentration of 30 µM
# Protocol: ADP Quest™ Assay for AMPK Activators
# This method evaluates AMP-activated protein kinase (AMPK) activity through detecting the accumulation of ADP product using an ADP Quest kit and determining the E30 values of the small molecular AMPK activators. ADP Quest kit (DiscoveRx, Fremont, Calif.) is stored at −20° C. before use. Before an experiment, thaw the kit (include assay buffer, ADP standard solution, reagent A and reagent B) and equilibrate to room temperature. Dispense the ADP Quest reagents into single-use aliquots and store at −20° C. The compound concentrations typically range from 0 µM to 100 µM by 2-fold dilution. AMP concentrations range from […] to 1 mM as the reference control. In an assay, thaw and equilibrate the assay buffer, reagent A and reagent B to room temperature for 30 minutes prior to use. Mix ATP, SAMS peptide substrate and compound, and place them into the 384-well assay plate. Add reagent A and B based on the assay kit protocol. Incubate the assay plate at room temperature for 30 minutes after addition the mixture followed by the addition of AMPK protein (Invitrogen, CA) to initiate the AMPK phosphorylation reaction. At the same time, reactions with AMPK activator AMP in the absence of enzyme is included as blank control. The reaction fluorescence signal is monitored and recorded on Envision in kinetic mode with the excitation wavelength of 530 nm and emission wavelength of 590 nm. The E30 value, defined as the fold of AMPK activation to phosphorylate SAMS peptide without and with an activator at the concentration of 30 µM, is calculated and analyzed using Prism 5.0.
row,E30,Compound
1,1.5,"CC(C)C1COC(=O)N1c1cccc(C2Nc3ccc(C(=O)O)cc3CC2(C)C)c1 (stereo in doubt) [Example 119, 2-[3-((S)-4-Isopropyl-2-oxo-oxazolidin-3-yl)-phenyl]-3,3-dimethyl-1,2,3,4-tetrahydro-quinoline-6-carboxylic acid]"
2,1.34,"CC1(C)Cc2cc(C(=O)O)ccc2NC1c1cccc(N2C(=O)OCC2Cc2ccccc2)c1 (stereo in doubt) [Example 124, 2-[3-((S)-4-Benzyl-2-oxo-oxazolidin-3-yl)-phenyl]-3,3-dimethyl-1,2,3,4-tetrahydro-quinoline-6-carboxylic acid]"
3,1.26,"CC1(C)Cc2cc(C(=O)O)ccc2NC1c1cccc(N2C(=O)OCC2Cc2ccccc2)c1 (stereo in doubt) [Example 127, 2-[3-((R)4-Benzyl-2-oxo-oxazolidin-3-yl)-phenyl]-3,3-dimethyl-1,2,3,4-tetrahydro-quinoline-6-carboxylic acid]"
4,1.43,"CC1(C)Cc2cc(C(=O)O)ccc2NC1c1cccc(NC(=O)NCc2ccccc2)c1 (stereo not shown) [Example 1, 2-[3-(3-Benzyl-ureido)-phenyl]-3,3-dimethyl-1,2,3,4-tetrahydro-quinoline-6-carboxylic acid]"
5,1.42,"CC1(C)Cc2cc(Cl)cc(C(=O)NS(=O)(=O)C3CC3)c2NC1c1cccc(NC(=O)c2cnccn2)c1 (stereo not shown) [Example 2, Pyrazine-2-carboxylic acid [3-(6-chloro-8-cyclopropanesulfonylaminocarbonyl-3,3-dimethyl-1,2,3,4-tetrahydro-quinolin-2-yl)-phenyl]-amide]"
6,1.33,"CC1(C)Cc2cc(C(=O)O)ccc2NC1c1cccc(NC(=O)c2cccnc2)c1 (stereo not shown) [Example 3, 3,3-Dimethyl-2-{3-[(pyridine-3-carbonyl)-amino]-phenyl}-1,2,3,4-tetrahydro-quinoline-6-carboxylic acid]"
7,1.33,"CC1(C)Cc2cc(C(=O)O)ccc2NC1c1cccc(NC(=O)c2ccccn2)c1 (stereo not shown) [Example 4, 3,3-Dimethyl-2-{3-[(pyridine-2-carbonyl)-amino]-phenyl}-1,2,3,4-tetrahydro-quinoline-6-carboxylic acid]"
8,1.32,"CC1(C)Cc2cc(C(=O)O)ccc2NC1c1cccc(NC(=O)c2cnccn2)c1 (stereo not shown) [Example 5, 3,3-Dimethyl-2-{3-[(pyrazine-2-carbonyl)-amino]-phenyl}-1,2,3,4-tetrahydro-quinoline-6-carboxylic acid]"
9,1.31,"CC1(C)Cc2cc(C(=O)O)ccc2NC1c1cccc(NC(=O)c2cccc(F)c2)c1 (stereo not shown) [Example 6, 2-[3-(3-fluoro-benzoylamino)-phenyl]-3,3-dimethyl-1,2,3,4-tetrahydro-quinoline-6-carboxylic acid]"
10,1.31,"CC1(C)Cc2cc(C(=O)O)ccc2NC1c1cccc(C(=O)O)c1 (stereo not shown) [Example 7, 2-(3-Carbonyl-phenyl)-3,3-dimethyl-1,2,3,4-tetrahydro-quinoline-6-carboxylic acid]"
11,1.29,"CC1(C)Cc2cc(C(=O)NS(C)(=O)=O)ccc2NC1c1cccc(N2CCOCC2)c1 (stereo not shown) [Example 8, N-[3,3-dimethyl-2-(3-morpholin-4-yl-phenyl)-1,2,3,4-tetrahydro-quinoline-6-carbonyl]-methanesulfonamide]"
12,1.28,"CC1(C)Cc2cc(C(=O)NS(C)(=O)=O)ccc2NC1c1cccc(C(=O)Nc2ccccc2)c1 (stereo not shown) [Example 9, 3-(6-Methanesulfonylaminocarbonyl-3,3-dimethyl-1,2,3,4-tetrahydro-quinolin-2-yl)-N-phenyl-benzamide]"
13,1.27,"CC(C)S(=O)(=O)NC(=O)c1ccc2c(c1)CC(C)(C)C(c1cccc(N3CCOCC3)c1)N2 (stereo not shown) [Example 10, Propane-2-sulfonic acid [3,3-dimethyl-2-(3-morpholin-4-yl-phenyl)-1,2,3,4-tetrahydro-quinoline-6-carbonyl]-amide]"
14,1.25,"CC1(C)Cc2cc(C(=O)NS(C)(=O)=O)ccc2NC1c1cccc(NC(=O)c2cnccn2)c1 (stereo not shown) [Example 11, Pyrazine-2-carboxylic acid [3-(6-methanesulfonylaminocarbonyl-3,3-dimethyl-1,2,3,4-tetrahydro-quinolin-2-yl)-phenyl]-amide]"
15,1.22,"CC1(C)Cc2cc(C(=O)O)ccc2NC1c1cccc(NC(=O)c2ccccc2)c1 (stereo not shown) [Example 12, 2-(3-Benzoylamino-phenyl)-3,3-dimethyl-1,2,3,4-tetrahydro-quinoline-6-carboxylic acid]"
16,1.21,"CC1(C)Cc2cc(C(=O)O)ccc2NC1c1cccc(NC(=O)Nc2cccc(F)c2)c1 (stereo not shown) [Example 13, 2-{3-[3-(3-Fluoro-phenyl)-ureido]-phenyl}-3,3-dimethyl-1,2,3,4-tetrahydro-quinoline-6-carboxylic acid]"

row,E30,Compound
1,1.2,"CC1(C)Cc2cc(C(=O)O)ccc2NC1c1cccc(C(=O)Nc2ccccc2)c1 (stereo not shown) [Example 14, 3,3-Dimethyl-2-(3-phenylcarbamoyl-phenyl)-1,2,3,4-tetrahydro-quinoline-6-carboxylic acid]"
2,3.59,"CC(C)(Nc1cccc(C2Nc3ccc(C(=O)O)cc3CC2(C)C)c1)C(=O)O (stereo not shown) [Example 15, 2-[3-(1-Carboxy-1-methyl-ethylamino)-phenyl]-3,3-dimethyl-1,2,3,4-tetrahydro-quinoline-6-carboxylic acid]"
3,1.59,"CN1CCN(c2cccc(C3Nc4ccc(C(=O)O)cc4CC3(C)C)c2)C1=O (stereo not shown) [Example 16, 3,3-Dimethyl-2-[3-(3-methyl-2-oxo-imidazolidin-1-yl)-phenyl]-1,2,3,4-tetrahydro-quinoline-6-carboxylic acid]"
4,1.45,"CC1(C)Cc2cc(C(=O)O)ccc2NC1c1cccc(N2CCNC2=O)c1 (stereo not shown) [Example 17, 3,3-Dimethyl-2-[3-(2-oxo-imidazolidin-1-yl)-phenyl]-1,2,3,4-tetrahydro-quinoline-6-carboxylic acid]"
5,1.41,"CC1(C)Cc2cc(C(=O)O)ccc2NC1c1cccc(N2CC(=O)NCC2=O)c1 (stereo not shown) [Example 18, 2-[3-(2,5-Dioxo-piperazin-1-yl)-phenyl]-3,3-dimethyl-1,2,3,4-tetrahydro-quinoline-6-carboxylic acid]"
6,1.38,"CC1(C)Cc2cc(C(=O)O)ccc2NC1c1cccc(N2CC(=O)NC2=O)c1 (stereo not shown) [Example 19, 2-[3-(2,4-Dioxo-imidazolidine-1-yl)-phenyl]-3,3-dimethyl-1,2,3,4-tetrahydro-quinoline-6-carboxylic acid]"
7,1.25,"CC1(C)Cc2cc(C(=O)O)ccc2NC1c1cccc(NC(=O)c2ccc(F)cc2)c1 (stereo not shown) [Example 20, 2-[3-(4-Fluoro-benzoylamino)-phenyl]-3,3-dimethyl-1,2,3,4-tetrahydro-quinoline-6-carboxylic acid]"
8,1.42,"CC1(C)Cc2cc(C(=O)O)ccc2NC1c1cccc(NC(=O)N2CCOCC2)c1 (stereo not shown) [Example 21, 3,3-Dimethyl-2-{3-[(morpholine-4-carbonyl)-amino]-phenyl}-1,2,3,4-tetrahydro-quinoline-6-carboxylic acid]"
9,1.39,"CC1(C)Cc2cc(C(=O)O)ccc2NC1c1cccc(NC(=O)N2CCCCC2)c1 (stereo not shown) [Example 22, 3,3-Dimethyl-2-{3-[(piperidine-1-carbonyl)-amino]-phenyl}-1,2,3,4-tetrahydro-quinoline-6-carboxylic acid]"
10,1.32,"CN(CC(=O)O)C(=O)c1ccc2c(c1)CC(C)(C)C(c1cccc(N3CCOCC3)c1)N2 (stereo not shown) [Example 23, {[3,3-Dimethyl-2-(3-morpholin-4-yl-phenyl)-1,2,3,4-tetrahydro-quinoline-6-carboxyl]-methyl-amino}-acetic acid]"
11,1.3,"CC1(C)Cc2cc(C(=O)N3CCC[C@H]3C(=O)O)ccc2NC1c1cccc(N2CCOCC2)c1 (stereo partly shown) [Example 24, 1-[3,3-Dimethyl-2-(3-morpholin-4-yl-phenyl)-1,2,3,4-tetrahydro-quinoline-6-carboxyl]-pyrrolidine-2-carboxylic acid]"
12,1.29,"CN(C)S(=O)(=O)Nc1cccc(C2Nc3ccc(C(=O)O)cc3CC2(C)C)c1 (stereo not shown) [Example 25, 2-(3-(N,N-dimethylsulfamoylamino)phenyl)-3,3-dimethyl-1,2,3,4-tetrahydroquinoline-6-carboxylic acid]"
13,1.27,"CC1(C)Cc2cc(C(=O)O)ccc2NC1c1cccc(N2CCN(c3ccccc3)C2=O)c1 (stereo not shown) [Example 26, 3,3-Dimethyl-2-[3-(2-oxo-3-phenyl-imidazolidin-1-yl)-phenyl]-1,2,3,4-tetrahydro-quinoline-6-carboxylic acid]"
14,1.24,"CN1CCN(C(=O)Nc2cccc(C3Nc4ccc(C(=O)O)cc4CC3(C)C)c2)CC1 (stereo not shown) [Example 27, 3,3-Dimethyl-2-{3-[(4-methyl-piperazine-1-carbonyl)-amino]-phenyl}-1,2,3,4-tetrahydro-quinoline-6-carboxylic acid]"
15,2.5,"CC(C)(Nc1cccc(C2Nc3ccc(C(=O)NS(C)(=O)=O)cc3CC2(C)C)c1)C(=O)O (stereo not shown) [Example 28, 2-[3-(6-Methanesulfonylaminocarbonyl-3,3-dimethyl-1,2,3,4-tetrahydro-quinolin-2-yl)-phenylamino]-2-methyl-propionic acid]"
